Data on one molecule can be found in ChEMBL document CHEMBL4339212, “Novel 7-formyl-naphthyridyl-ureas derivatives as potential selective FGFR4 inhibitors: Design, synthesis, and biological activity studies” (Bioorg Med Chem, 2019).

pIC50: −log10 of the molar value.

A word on the pIC50: it is the IC50 on a negative log10 scale, so that one unit is a factor of ten. Higher therefore signals a small IC50. For orientation: NOAEL means the highest tested level that showed no adverse finding.

Data set [1] has as its target Proto-oncogene tyrosine-protein kinase ROS (Homo sapiens, UniProt P08922). The experiment in a line: Inhibition of ROS (unknown origin).
Data set [2] concerns the target Platelet-derived growth factor receptor alpha (Homo sapiens, UniProt P16234). The experiment in a line: Inhibition of PDGFRalpha (unknown origin).
Data set [3] addresses Tyrosine-protein kinase JAK2 (Homo sapiens, UniProt O60674). The experiment in a line: Inhibition of JAK2 (unknown origin).
Data set [4] concerns the target Receptor-type tyrosine-protein kinase FLT3 (Homo sapiens, UniProt P36888). Kind of data set: Inhibition of FLT3 (unknown origin).
For data set [5], the target named is Hepatocyte growth factor receptor (Homo sapiens, UniProt P08581). The experiment in a line: Inhibition of MET (unknown origin).
Data set [6] deals with Proto-oncogene tyrosine-protein kinase receptor Ret (Homo sapiens, UniProt P07949). Kind of data set: Inhibition of RET (unknown origin).
Proto-oncogene tyrosine-protein kinase receptor Ret, sequence (P07949 whole entry): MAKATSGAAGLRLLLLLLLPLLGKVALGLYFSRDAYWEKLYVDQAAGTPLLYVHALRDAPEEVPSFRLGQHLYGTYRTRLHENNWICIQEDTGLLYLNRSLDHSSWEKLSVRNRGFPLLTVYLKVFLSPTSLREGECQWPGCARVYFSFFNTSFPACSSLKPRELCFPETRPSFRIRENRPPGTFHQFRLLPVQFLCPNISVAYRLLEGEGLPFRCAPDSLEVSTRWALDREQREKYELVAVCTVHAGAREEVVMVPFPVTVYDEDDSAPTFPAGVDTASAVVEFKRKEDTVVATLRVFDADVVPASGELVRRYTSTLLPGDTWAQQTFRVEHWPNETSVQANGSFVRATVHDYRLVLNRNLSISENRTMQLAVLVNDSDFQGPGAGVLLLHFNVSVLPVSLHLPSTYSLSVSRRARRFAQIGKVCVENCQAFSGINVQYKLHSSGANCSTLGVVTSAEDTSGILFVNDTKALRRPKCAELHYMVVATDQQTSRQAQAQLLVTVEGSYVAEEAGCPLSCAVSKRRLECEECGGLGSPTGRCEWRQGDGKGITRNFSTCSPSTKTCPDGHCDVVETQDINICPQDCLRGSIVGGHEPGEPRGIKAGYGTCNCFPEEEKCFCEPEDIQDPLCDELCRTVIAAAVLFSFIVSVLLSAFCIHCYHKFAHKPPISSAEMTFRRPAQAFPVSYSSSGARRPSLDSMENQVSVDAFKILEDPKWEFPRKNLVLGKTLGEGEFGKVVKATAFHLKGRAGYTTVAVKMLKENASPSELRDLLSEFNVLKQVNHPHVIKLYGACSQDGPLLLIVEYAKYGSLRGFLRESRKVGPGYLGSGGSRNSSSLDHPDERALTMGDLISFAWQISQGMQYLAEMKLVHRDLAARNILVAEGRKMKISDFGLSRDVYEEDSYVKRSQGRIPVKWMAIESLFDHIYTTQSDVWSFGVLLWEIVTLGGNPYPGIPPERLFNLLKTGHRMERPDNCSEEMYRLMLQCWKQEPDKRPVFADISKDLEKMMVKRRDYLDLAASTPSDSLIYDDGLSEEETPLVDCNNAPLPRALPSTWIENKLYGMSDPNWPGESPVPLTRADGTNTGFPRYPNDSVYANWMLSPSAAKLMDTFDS
Data set [7] addresses Tyrosine-protein kinase ZAP-70 (Homo sapiens, UniProt P43403). The experiment in a line: Inhibition of ZAP70 (unknown origin).
In a further data set the target is Focal adhesion kinase 1 (Homo sapiens, UniProt Q05397). The experiment in a line: Inhibition of FAK (unknown origin).
Focal adhesion kinase 1, sequence (Q05397 whole entry): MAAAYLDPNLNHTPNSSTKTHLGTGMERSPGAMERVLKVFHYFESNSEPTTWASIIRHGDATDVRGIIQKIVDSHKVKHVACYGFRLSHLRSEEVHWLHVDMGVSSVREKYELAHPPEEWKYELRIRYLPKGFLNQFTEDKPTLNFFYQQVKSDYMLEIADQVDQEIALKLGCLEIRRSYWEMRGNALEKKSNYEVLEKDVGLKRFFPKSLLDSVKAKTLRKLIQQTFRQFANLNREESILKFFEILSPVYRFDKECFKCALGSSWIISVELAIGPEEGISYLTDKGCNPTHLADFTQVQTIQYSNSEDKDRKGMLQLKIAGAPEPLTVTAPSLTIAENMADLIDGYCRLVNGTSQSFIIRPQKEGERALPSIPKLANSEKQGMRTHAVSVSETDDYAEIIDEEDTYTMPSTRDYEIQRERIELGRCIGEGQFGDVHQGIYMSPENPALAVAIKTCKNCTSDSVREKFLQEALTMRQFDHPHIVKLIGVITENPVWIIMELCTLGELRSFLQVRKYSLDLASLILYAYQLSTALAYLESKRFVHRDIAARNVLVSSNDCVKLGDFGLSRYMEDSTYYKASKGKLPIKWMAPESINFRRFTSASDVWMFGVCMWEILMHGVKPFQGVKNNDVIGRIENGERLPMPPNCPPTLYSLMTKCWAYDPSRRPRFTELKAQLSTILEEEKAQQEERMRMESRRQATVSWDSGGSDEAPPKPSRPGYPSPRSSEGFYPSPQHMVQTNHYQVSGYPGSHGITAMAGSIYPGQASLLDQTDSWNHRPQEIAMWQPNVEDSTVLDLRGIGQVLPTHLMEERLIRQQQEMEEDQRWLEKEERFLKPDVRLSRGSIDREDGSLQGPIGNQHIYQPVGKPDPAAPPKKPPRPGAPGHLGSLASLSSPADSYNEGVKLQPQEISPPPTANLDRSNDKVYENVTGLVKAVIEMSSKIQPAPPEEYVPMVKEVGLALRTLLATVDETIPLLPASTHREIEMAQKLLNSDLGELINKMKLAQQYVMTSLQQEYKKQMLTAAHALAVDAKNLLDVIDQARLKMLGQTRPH
Data set [8] addresses Tyrosine-protein kinase receptor UFO (Homo sapiens, UniProt P30530). Kind of data set: Inhibition of AXL (unknown origin).
Data set [9] deals with Insulin-like growth factor 1 receptor (Homo sapiens, UniProt P08069). Kind of data set: Inhibition of IGF1R (unknown origin).
Data set [10] has as its target Vascular endothelial growth factor receptor 1 (Homo sapiens, UniProt P17948). The experiment in a line: Inhibition of FLT1 (unknown origin).
The nature of data set [11]: Toxicity in male BALB/c mouse at 50 to 450 mg/kg/day, ig dosed once daily for 4 weeks followed by rehabilitation for another 28 days. It is filed as organism-based. The conditions noted are these: in vivo, po.
Data set [12] in a line: Toxicity in female BALB/c mouse at 50 to 450 mg/kg/day, ig dosed once daily for 4 weeks followed by rehabilitation for another 28 days. The class given is organism-based. Conditions: in vivo, po.
The next data set relates to Hep 3B2. The experiment in a line: cells. Conditions: Homo sapiens, Hep3B, 72 h.
Another data set relates to Huh-7. Kind of data set: cells. Conditions: Homo sapiens, Huh-7, 72 h.

Platelet-derived growth factor receptor alpha, sequence (P16234 whole entry): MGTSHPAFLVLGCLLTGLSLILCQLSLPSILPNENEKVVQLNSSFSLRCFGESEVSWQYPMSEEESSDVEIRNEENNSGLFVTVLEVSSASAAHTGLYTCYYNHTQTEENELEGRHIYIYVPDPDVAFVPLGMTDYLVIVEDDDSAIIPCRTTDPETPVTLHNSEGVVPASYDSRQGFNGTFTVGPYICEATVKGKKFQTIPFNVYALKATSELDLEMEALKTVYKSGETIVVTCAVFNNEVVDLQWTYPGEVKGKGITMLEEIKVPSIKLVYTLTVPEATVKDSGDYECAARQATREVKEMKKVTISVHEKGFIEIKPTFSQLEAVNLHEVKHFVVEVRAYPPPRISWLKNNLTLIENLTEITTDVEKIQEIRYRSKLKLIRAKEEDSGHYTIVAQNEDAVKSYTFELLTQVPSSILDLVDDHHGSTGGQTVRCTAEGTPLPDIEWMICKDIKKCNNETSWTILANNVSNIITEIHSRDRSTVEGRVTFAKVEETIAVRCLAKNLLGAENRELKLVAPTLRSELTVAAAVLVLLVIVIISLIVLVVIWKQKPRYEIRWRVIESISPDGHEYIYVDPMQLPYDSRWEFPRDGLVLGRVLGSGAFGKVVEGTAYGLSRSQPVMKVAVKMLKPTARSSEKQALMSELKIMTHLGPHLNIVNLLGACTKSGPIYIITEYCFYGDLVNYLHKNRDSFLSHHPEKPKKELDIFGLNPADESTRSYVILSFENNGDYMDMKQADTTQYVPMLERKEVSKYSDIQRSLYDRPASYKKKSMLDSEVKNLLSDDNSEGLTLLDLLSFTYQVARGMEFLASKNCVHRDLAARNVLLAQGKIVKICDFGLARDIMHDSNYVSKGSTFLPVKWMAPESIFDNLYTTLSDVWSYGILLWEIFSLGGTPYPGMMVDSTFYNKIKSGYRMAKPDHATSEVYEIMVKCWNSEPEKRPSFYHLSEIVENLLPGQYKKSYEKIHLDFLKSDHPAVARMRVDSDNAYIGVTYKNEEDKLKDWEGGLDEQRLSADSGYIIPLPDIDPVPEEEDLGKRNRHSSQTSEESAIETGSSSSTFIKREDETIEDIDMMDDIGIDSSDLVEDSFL
Tyrosine-protein kinase ZAP-70, sequence (P43403 whole entry): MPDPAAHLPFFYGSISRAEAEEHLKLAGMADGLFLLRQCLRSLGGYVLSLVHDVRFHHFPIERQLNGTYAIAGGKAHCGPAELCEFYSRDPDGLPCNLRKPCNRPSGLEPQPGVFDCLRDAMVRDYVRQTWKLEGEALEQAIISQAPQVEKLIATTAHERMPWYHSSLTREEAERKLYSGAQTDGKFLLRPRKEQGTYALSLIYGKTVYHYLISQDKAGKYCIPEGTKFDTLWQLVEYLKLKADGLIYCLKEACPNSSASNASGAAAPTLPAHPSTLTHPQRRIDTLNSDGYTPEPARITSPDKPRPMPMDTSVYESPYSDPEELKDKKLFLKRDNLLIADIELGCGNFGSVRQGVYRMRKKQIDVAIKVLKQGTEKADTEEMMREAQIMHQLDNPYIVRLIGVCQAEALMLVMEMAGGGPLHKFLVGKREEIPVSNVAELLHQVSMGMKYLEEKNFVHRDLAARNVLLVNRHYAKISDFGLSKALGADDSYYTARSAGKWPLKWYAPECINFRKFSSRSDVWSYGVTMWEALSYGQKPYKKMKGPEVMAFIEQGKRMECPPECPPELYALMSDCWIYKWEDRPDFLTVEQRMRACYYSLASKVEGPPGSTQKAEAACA
Receptor-type tyrosine-protein kinase FLT3, sequence (P36888 whole entry): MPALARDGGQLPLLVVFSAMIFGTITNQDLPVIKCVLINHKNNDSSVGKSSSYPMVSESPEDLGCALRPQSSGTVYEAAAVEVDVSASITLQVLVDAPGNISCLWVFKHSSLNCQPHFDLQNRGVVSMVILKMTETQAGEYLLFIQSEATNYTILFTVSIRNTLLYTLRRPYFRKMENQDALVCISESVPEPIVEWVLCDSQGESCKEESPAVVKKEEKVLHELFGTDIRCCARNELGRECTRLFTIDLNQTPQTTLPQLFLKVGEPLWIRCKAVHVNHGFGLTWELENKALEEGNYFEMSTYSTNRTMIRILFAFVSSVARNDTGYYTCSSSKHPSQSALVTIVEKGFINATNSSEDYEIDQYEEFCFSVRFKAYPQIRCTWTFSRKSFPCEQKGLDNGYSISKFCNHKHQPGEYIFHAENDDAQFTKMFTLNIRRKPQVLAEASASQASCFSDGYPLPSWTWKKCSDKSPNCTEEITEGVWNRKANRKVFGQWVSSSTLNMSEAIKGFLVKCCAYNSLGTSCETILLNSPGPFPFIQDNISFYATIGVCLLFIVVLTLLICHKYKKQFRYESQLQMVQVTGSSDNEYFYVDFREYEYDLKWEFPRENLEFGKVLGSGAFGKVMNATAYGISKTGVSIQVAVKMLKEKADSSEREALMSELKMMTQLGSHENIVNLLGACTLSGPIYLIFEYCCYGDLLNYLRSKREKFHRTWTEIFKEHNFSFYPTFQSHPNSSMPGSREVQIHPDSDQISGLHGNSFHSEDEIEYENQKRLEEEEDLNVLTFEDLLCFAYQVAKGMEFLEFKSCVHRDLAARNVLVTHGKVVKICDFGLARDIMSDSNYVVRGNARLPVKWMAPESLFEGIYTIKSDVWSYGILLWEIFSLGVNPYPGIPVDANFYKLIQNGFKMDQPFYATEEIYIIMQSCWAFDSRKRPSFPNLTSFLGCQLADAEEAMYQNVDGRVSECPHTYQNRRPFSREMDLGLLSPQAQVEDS

For `COC[C@@H](C)Nc1cc(NC(=O)N2CCCc3cc(CN4CCCCOC4=O)c(C=O)nc32)ncc1C#N`, the pIC50 in data set [1], in [2], in data set [3], in data set [4], in [5] and in [6] was under 5.00 each time. Moreover, the pIC50 in data set [7] was under 5.00; on Focal adhesion kinase 1 it was under 5.00; in data set [8], under 5.00; in [9], under 5.00; in data set [10], under 5.00; in the data set on Hep 3B2, 8.96. In the data set on Huh-7, the pIC50 was 8.60. Besides, the NOAEL at 672 h amounted to 450 mg/kg in data set [11] and 150 mg/kg in data set [12].
